In paper PMC4450297, “Screening Active Compounds from Garcinia Species Native to China Reveals Novel Compounds Targeting the STAT/JAK Signaling Pathway” (BioMed Research International, 2015):

Legend:
Assay type in all cases: cell-based, human
HT-1197 = assay: Cell panel screen (CellTiter-Glo); conditions: Homo sapiens, HT1197; HT-1197 (Urinary bladder), 20 micromolar, 72 hrs; read-out: Percent Inhibition
In short: (§1)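 Steps: seed cells, culture overnight at 37°C; add compound diluted in medium from DMSO stock to 20 μM final; incubate 72 h; add detection reagent for 10 min; read luminescence; compute % inhibition versus vehicle controls.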

C8166 = assay: Cell panel screen (CellTiter-Glo); conditions: Homo sapiens; C8166 (Leukemia), 20 micromolar, 72 hrs; read-out: Percent Inhibition
In short: as §1

CW-2 = assay: Cell panel screen (CellTiter-Glo); conditions: Homo sapiens; CW-2 (Colon), 20 micromolar, 72 hrs; read-out: Percent Inhibition
In short: as §1

HCC1395 = assay: Cell panel screen (CellTiter-Glo); conditions: Homo sapiens; HCC1395 (Breast), 20 micromolar, 72 hrs; read-out: Percent Inhibition
In short: as §1

C3A = assay: Cell panel screen (CellTiter-Glo); conditions: Homo sapiens; C3A (Liver), 20 micromolar, 72 hrs; read-out: Percent Inhibition
In short: as §1

HGC-27 = assay: Cell panel screen (CellTiter-Glo); conditions: Homo sapiens; HGC-27 (Stomach), 20 micromolar, 72 hrs; read-out: Percent Inhibition
In short: as §1

NCI-H2405 = assay: Cell panel screen (CellTiter-Glo); conditions: Homo sapiens; NCI-H2405 (Lung), 20 micromolar, 72 hrs; read-out: Percent Inhibition
In short: as §1

RL95 = assay: Cell panel screen (CellTiter-Glo); conditions: Homo sapiens; RL95 (Uterus), 20 micromolar, 72 hrs; read-out: Percent Inhibition
In short: as §1

M059J = assay: Cell panel screen (CellTiter-Glo); conditions: Homo sapiens; M059J (Brain), 20 micromolar, 72 hrs; read-out: Percent Inhibition
In short: as §1

A498 = assay: Cell panel screen (CellTiter-Glo); conditions: Homo sapiens; A498 (listed under Lung), 20 micromolar, 72 hrs; read-out: Percent Inhibition
In short: as §1

HEC-1-A = assay: Cell panel screen (CellTiter-Glo); conditions: Homo sapiens; HEC-1-A (Uterus), 20 micromolar, 72 hrs; read-out: Percent Inhibition
In short: as §1

NCI-H28 = assay: Cell panel screen (CellTiter-Glo); conditions: Homo sapiens; NCI-H28 (Lung), 20 micromolar, 72 hrs; read-out: Percent Inhibition
In short: as §1

T47D = assay: Cell panel screen (CellTiter-Glo); conditions: Homo sapiens; T47D (Breast), 20 micromolar, 72 hrs; read-out: Percent Inhibition
In short: as §1

Colo 205 = assay: Cell panel screen (CellTiter-Glo); conditions: Homo sapiens; Colo 205, 20 micromolar, 72 hrs; read-out: Percent Inhibition
In short: as §1

SW13 = assay: Cell panel screen (CellTiter-Glo); conditions: Homo sapiens; SW13 (Adrenal gland), 20 micromolar, 72 hrs; read-out: Percent Inhibition
In short: as §1

NCI-H1694 = assay: Cell panel screen (CellTiter-Glo); conditions: Homo sapiens; NCI-H1694 (Lung), 20 micromolar, 72 hrs; read-out: Percent Inhibition
In short: as §1

T98G = assay: Cell panel screen (CellTiter-Glo); conditions: Homo sapiens; T98G (Brain), 20 micromolar, 72 hrs; read-out: Percent Inhibition
In short: as §1

ZR-75-30 = assay: Cell panel screen (CellTiter-Glo); conditions: Homo sapiens; ZR-75-30 (Breast), 20 micromolar, 72 hrs; read-out: Percent Inhibition
In short: as §1

NCI-H1623 = assay: Cell panel screen (CellTiter-Glo); conditions: Homo sapiens; NCI-H1623 (Lung), 20 micromolar, 72 hrs; read-out: Percent Inhibition
In short: as §1

J82 = assay: Cell panel screen (CellTiter-Glo); conditions: Homo sapiens; J82 (Urinary bladder), 20 micromolar, 72 hrs; read-out: Percent Inhibition
In short: as §1

HCC1937 = assay: Cell panel screen (CellTiter-Glo); conditions: Homo sapiens; HCC1937 (Breast), 20 micromolar, 72 hrs; read-out: Percent Inhibition
In short: as §1

BT-474 = assay: Cell panel screen (CellTiter-Glo); conditions: Homo sapiens; BT-474 (Breast), 20 micromolar, 72 hrs; read-out: Percent Inhibition
In short: as §1

NCI-H1770 = assay: Cell panel screen (CellTiter-Glo); conditions: Homo sapiens; NCI-H1770 (Lung), 20 micromolar, 72 hrs; read-out: Percent Inhibition
In short: as §1

HCC1569 = assay: Cell panel screen (CellTiter-Glo); conditions: Homo sapiens; HCC1569 (Breast), 20 micromolar, 72 hrs; read-out: Percent Inhibition
In short: as §1

Bel-7402 = assay: Cell panel screen (CellTiter-Glo); conditions: Homo sapiens; Bel-7402 (Liver), 20 micromolar, 72 hrs; read-out: Percent Inhibition
In short: as §1

NCI-H1650 = assay: Cell proliferation assay (CellTiter-Glo); conditions: Homo sapiens, NCI-H1650, 72 h, NCI-H1650 cells, 20 μM to 0.009 μM in serial 3-fold dilutions
Description: All cells were obtained from the cell bank of the American Type Culture Collection (ATCC) and cultured in the supplier's recommended media supplemented with 10% FBS. The cell panel screen was measured using the CellTiter-Glo assay (Promega, Madison, WI) following a standard protocol. Briefly, cancer cells were seeded in 96-well plates and cultured overnight at 37°C with or without 5% CO2 in an incubator. Each compound was dissolved with limited DMSO and diluted to a certain concentration with culture medium and then added to the corresponding well of the cell plate. The final concentration of compound was 20 μM. The control cells (without treatment) received the same amount of DMSO and were incubated under the same conditions. After 72 h cultivation, 100 μL of the CellTiter-Glo reagent was added directly to each well for 10-minute incubation. The plate was then read on a FlexStation 3 microplate luminometer (Molecular Devices, USA) to monitor the luminescence signal generated by the luciferase-catalyzed reaction of luciferin and ATP. The percent of growth inhibition was calculated using the following formula: (untreated cells − treated cells)/(untreated cells − background without cells) ∗ 100.
For proliferation assays, the CellTiter-Glo assay (Promega, Madison, WI) was used to evaluate the proliferation of cancer cells treated with test compounds as described above. Each compound was dissolved in limited DMSO and diluted to various concentrations with culture medium and then added to the corresponding wells. A dose-response curve was plotted, and the IC50 was calculated using XLfit software.

CC(C)=CCC/C(C)=C/Cc1c(O)c(CC=C(C)C)c2c(c1O)C(=O)C1=C[C@@H]3C[C@H]4C(C)(C)O[C@@](C/C=C(\C)C=O)(C3=O)[C@@]14O2 [GB49]
96%: inhibition at 20 µM (HT-1197)
98%: inhibition at 20 µM (HGC-27) | inhibition at 20 µM (J82) | inhibition at 20 µM (Bel-7402)
100%: inhibition at 20 µM (Colo 205) | inhibition at 20 µM (NCI-H1694) | inhibition at 20 µM (ZR-75-30)
97%: inhibition at 20 µM (C3A) | inhibition at 20 µM (NCI-H28)
88%: inhibition at 20 µM (A498)
99%: inhibition at 20 µM (C8166) | inhibition at 20 µM (CW-2) | inhibition at 20 µM (HCC1395) | inhibition at 20 µM (NCI-H2405) | inhibition at 20 µM (RL95) | inhibition at 20 µM (M059J) | inhibition at 20 µM (HEC-1-A) | inhibition at 20 µM (T47D) | inhibition at 20 µM (SW13) | inhibition at 20 µM (T98G) | inhibition at 20 µM (NCI-H1623) | inhibition at 20 µM (HCC1937) | inhibition at 20 µM (BT-474) | inhibition at 20 µM (NCI-H1770) | inhibition at 20 µM (HCC1569)
970 ± 40 nM: IC50 (NCI-H1650)
